Reference: ChEMBL document CHEMBL3856233, “Identification of (R)-(2-Chloro-3-(trifluoromethyl)phenyl)(1-(5-fluoropyridin-2-yl)-4-methyl-6,7-dihydro-1H-imidazo[4,5-c]pyridin-5(4H)-yl)methanone (JNJ 54166060), a Small Molecule Antagonist of the P2X7 receptor” (J Med Chem, 2016)
Converted amounts (≈) assume the structure as drawn.

Key:
[1] = Drug metabolism in human liver microsomes assessed as oxidation of imdazopyridine core at 10 uM after 60 mins by LC/MS/MS analysis; type: ADME; details: 1 h
[2] = Drug metabolism in human liver microsomes assessed as oxidation of fluoropyridine substituent at 10 uM after 60 mins by LC/MS/MS analysis; type: ADME; details: 1 h
[3] = target: T1, P2X purinoceptor 7 (Mus musculus, UniProt Q9Z1M0); assay: Antagonist activity at P2X7 receptor in LPS-stimulated mouse whole blood assessed as inhibition of Bz-ATP-induced IL-1beta release incubated for 30 mins after LPS stimulation for 1 hr followed by agonist addition measured after […] by ELISA; type: tissue-based
T1 sequence (Q9Z1M0 whole entry): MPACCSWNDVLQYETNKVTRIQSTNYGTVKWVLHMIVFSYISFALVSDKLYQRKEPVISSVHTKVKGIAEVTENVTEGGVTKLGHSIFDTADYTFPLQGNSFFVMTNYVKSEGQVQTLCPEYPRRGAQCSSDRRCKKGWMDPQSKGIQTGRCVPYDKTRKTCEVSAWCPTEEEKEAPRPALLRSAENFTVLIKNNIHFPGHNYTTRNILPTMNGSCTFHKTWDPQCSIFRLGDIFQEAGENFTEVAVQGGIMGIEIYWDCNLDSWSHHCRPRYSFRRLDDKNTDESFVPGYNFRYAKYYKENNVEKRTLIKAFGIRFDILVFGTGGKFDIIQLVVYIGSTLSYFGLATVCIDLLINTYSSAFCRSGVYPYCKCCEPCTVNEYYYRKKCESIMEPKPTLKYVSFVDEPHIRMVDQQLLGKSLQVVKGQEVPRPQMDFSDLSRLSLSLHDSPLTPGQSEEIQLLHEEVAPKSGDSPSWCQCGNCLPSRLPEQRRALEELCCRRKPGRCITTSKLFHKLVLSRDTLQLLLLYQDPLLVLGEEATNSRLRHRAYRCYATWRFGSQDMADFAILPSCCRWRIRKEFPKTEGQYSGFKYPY

[4] = tested on: Rattus norvegicus; assay: Ex vivo receptor occupancy at P2X7 receptor in po dosed rat brain hippocampal section assessed as displacement of [3H]-(S)-7-(2-chloro-3-(trifluoromethyl)benzyl)-6-methyl-3-(pyrazin-2-yl)-6,7-dihydro-[1,2,4]triazolo[4,3-a]pyrazin-8(5H)-one after 30 mins; type: functional
[5] = Clearance in Beagle dog at 1 mg/kg, iv after 0.033 to 24 hrs by LC/MS/MS analysis; type: ADME, organism-based, Canis lupus familiaris; details: in vivo
[6] = Clearance in cynomolgus monkey at 1 mg/kg, iv after 0.033 to 24 hrs by LC/MS/MS analysis; type: ADME, organism-based, Macaca fascicularis; details: in vivo
[7] = Volume of distribution at steady state in Sprague-Dawley rat at 1 mg/kg, iv after 0.033 to 24 hrs by LC/MS/MS analysis; type: ADME, organism-based; details: in vivo, read-out: Vdss
[8] = Half life in Sprague-Dawley rat at 1 mg/kg, iv by LC/MS/MS analysis; type: ADME, organism-based; details: in vivo
[9] = Half life in Beagle dog at 1 mg/kg, iv by LC/MS/MS analysis; type: ADME, organism-based, Canis lupus familiaris; details: in vivo
[10] = Half life in cynomolgus monkey at 1 mg/kg, iv by LC/MS/MS analysis; type: ADME, organism-based, Macaca fascicularis; details: in vivo
[11] = Cmax in Sprague-Dawley rat at 5 mg/kg, po after 0.033 to 24 hrs by LC/MS/MS analysis; type: ADME, organism-based; set-up: dose 5 mg/kg, route oral; details: in vivo
[12] = Cmax in Beagle dog at 5 mg/kg, po after 0.033 to 24 hrs by LC/MS/MS analysis; type: ADME, organism-based, Canis lupus familiaris; set-up: dose 5 mg/kg, route oral; details: in vivo
[13] = Tmax in Sprague-Dawley rat at 5 mg/kg, po after 0.033 to 24 hrs by LC/MS/MS analysis; type: ADME, organism-based; details: in vivo
[14] = Tmax in Beagle dog at 5 mg/kg, po after 0.033 to 24 hrs by LC/MS/MS analysis; type: ADME, organism-based, Canis lupus familiaris; details: in vivo
[15] = Tmax in cynomolgus monkey at 5 mg/kg, po after 0.033 to 24 hrs by LC/MS/MS analysis; type: ADME, organism-based, Macaca fascicularis; details: in vivo
[16] = Oral bioavailability in Sprague-Dawley rat at 5 mg/kg after 0.033 to 24 hrs by LC/MS/MS analysis; type: ADME, organism-based; details: in vivo
[17] = Oral bioavailability in Beagle dog at 5 mg/kg after 0.033 to 24 hrs by LC/MS/MS analysis; type: ADME, organism-based, Canis lupus familiaris; details: in vivo
[18] = Oral bioavailability in cynomolgus monkey at 5 mg/kg after 0.033 to 24 hrs by LC/MS/MS analysis; type: ADME, organism-based, Macaca fascicularis; details: in vivo
[19] = Tmax in rat at 1000 mg/kg, po; type: ADME, organism-based; details: in vivo
[20] = tested on: Rattus norvegicus; assay: Toxicity in rat assessed as CNS side effects up to 1000 mg/kg, po administered on day 1 followed by necropsy on day 2; type: organism-based; details: in vivo
[21] = tested on: Rattus norvegicus; assay: Toxicity in rat assessed as increase in total serum cholesterol at 125 to 250 mg/kg, po administered for 4 days followed by necropsy on day 5 post treatment by histological analysis; type: organism-based; details: in vivo, 96 h
[22] = target: T2, CYP3A4 (Homo sapiens, UniProt P08684); assay: Inhibition of CYP3A4 in human liver microsomes using midazolam as substrate assessed as reduction in 1-OH-midazolam formation at 0.313 uM by LC/MS/MS analysis; type: ADME; details: probe midazolam
T2 sequence (P08684 whole entry): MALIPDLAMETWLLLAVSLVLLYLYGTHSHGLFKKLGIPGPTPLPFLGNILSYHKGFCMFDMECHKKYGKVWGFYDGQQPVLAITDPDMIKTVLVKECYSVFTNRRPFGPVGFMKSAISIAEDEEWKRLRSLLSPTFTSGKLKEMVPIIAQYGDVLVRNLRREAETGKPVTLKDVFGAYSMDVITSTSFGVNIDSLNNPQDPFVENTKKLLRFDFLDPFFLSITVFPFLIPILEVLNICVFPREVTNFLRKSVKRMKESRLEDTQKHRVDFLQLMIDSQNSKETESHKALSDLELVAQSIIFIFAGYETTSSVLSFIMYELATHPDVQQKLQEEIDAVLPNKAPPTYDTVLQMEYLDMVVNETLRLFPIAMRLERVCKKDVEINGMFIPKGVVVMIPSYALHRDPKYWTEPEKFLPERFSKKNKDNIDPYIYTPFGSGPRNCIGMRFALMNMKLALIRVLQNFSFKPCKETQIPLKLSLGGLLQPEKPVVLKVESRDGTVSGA

[23] = target: T2, CYP3A4; assay: Inhibition of CYP3A4 in human liver microsomes using midazolam as substrate assessed as reduction in 1-OH-midazolam formation at 0.625 uM by LC/MS/MS analysis; type: ADME; details: probe midazolam
[24] = target: T2, CYP3A4; assay: Inhibition of CYP3A4 in human liver microsomes using midazolam as substrate assessed as reduction in 1-OH-midazolam formation at 1.25 uM by LC/MS/MS analysis; type: ADME; details: probe midazolam
[25] = target: T2, CYP3A4; assay: Inhibition of CYP3A4 in human liver microsomes using midazolam as substrate assessed as reduction in 1-OH-midazolam formation at 2.5 uM by LC/MS/MS analysis; type: ADME; details: probe midazolam
[26] = target: T2, CYP3A4; assay: Inhibition of CYP3A4 in human liver microsomes using midazolam as substrate assessed as reduction in 1-OH-midazolam formation at 5 uM by LC/MS/MS analysis; type: ADME; details: probe midazolam
[27] = target: T2, CYP3A4; assay: Inhibition of CYP3A4 in human liver microsomes using midazolam as substrate assessed as reduction in 4-OH-midazolam formation at 0.313 uM by LC/MS/MS analysis; type: ADME; details: probe midazolam
[28] = Permeability from basolateral to apical side in human Caco2 cells at 10 uM after […] by LC/MS/MS analysis; type: ADME, cell-based; details: Caco-2, read-out: permeability
[29] = tested on: Rattus norvegicus; assay: Toxicity in rat assessed as CNS side effects up to 250 mg/kg, po for 4 days followed by necropsy on day 5 post treatment; type: organism-based; details: in vivo, 96 h
[30] = tested on: Rattus norvegicus; assay: Toxicity in rat assessed as induction of central lobular hepatocellular necrosis at 250 mg/kg/day, po administered for 4 days followed by necropsy on day 5 post treatment by histological analysis; type: organism-based; details: in vivo, 96 h
[31] = Brain tissue binding in rat brain homogenate at 5 uM after 5 hrs by LC/MS/MS analysis; details: in vitro
[32] = Solubility of compound in phosphate buffer at pH 2 at room temperature after 3 days
[33] = Solubility of the compound in phosphate buffer at pH 7 at room temperature after 3 days

For `C[C@@H]1c2ncn(-c3ccc(F)cn3)c2CCN1C(=O)c1cccc(C(F)(F)F)c1Cl`, the Drug metabolism [1] was “Metabolite_Detected”, the Drug metabolism [2] was “Metabolite_Notdetected” and the IC50 [3] was 160 nM. The ED50 [4] was 2.3 mg/kg, the inhibition [4] was “Dose-dependent effect” and the clearance [5] was 5.5 mL/min/kg. It also gave a clearance [6] of 14 mL/min/kg, a Vd [7] of 3.8 L/kg and a half-life [8] of 1.7 h. It also gave a half-life [9] of 11.9 h, a half-life [10] of 4.2 h and a Cmax [11] of 375 ng/mL. For the same compound, the Cmax [12] was 1250 ng/mL, the Tmax [13] was 1 h and the Tmax [14] was 0.5 h. It also gave a Tmax [15] of 2.3 h, a bioavailability [16] of 55% and a bioavailability [17] of over 100%. The bioavailability [18] was 54%, the Tmax [19] was 24 h and the Activity [20] was “Non-Toxic”. For the same compound, the Activity [21] was “Toxic”, the inhibition at 0.313 µM [22] was 20% and the inhibition at 0.625 µM [23] was 29%. The inhibition at 1.25 µM [24] was 41%, the inhibition at 2.5 µM [25] was 52% and the inhibition at 5 µM [26] was 63%. For the same compound, the inhibition at 0.313 µM [27] was 0.1%, the Papp B→A at 10 µM [28] was 35 ×10⁻⁶ cm/s and the Activity [29] was “Non-Toxic”. For the same compound, the Activity [30] was “Toxic”, the Brain tissue binding [31] was 98.5% and the solubility at 72 h [32] was over 400 µM. It also gave a solubility at 72 h [33] of 29 µM (≈ 12.7 µg/mL).
